# Target: T1, hCRTH2 (Homo sapiens, UniProt Q9Y5Y4)
# T1 construct: expressed in transfected cells; host or cells: HEK (human embryonic kidney) cells expressing hCRTH2; membrane preparation
# T1 sequence (Q9Y5Y4 1-395): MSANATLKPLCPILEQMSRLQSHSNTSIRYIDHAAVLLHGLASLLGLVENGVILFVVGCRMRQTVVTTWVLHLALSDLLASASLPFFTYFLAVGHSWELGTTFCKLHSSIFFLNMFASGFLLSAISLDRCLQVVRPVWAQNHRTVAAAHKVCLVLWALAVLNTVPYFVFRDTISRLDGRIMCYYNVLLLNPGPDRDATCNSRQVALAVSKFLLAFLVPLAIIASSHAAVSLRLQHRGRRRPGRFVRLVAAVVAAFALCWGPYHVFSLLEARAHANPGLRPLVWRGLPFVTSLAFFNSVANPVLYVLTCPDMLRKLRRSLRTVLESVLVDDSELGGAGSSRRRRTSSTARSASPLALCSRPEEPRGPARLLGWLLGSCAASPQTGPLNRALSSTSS
# Experiment: Radioligand binding assay ([3H]PGD2 competition, HEK-hCRTH2 membranes)
# Settings: [3H]PGD2 binding, rated A-E (Table A)
# How it was run: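 Competition against 3.0 nM [3H]PGD2 was run for 60 min at room temperature in pH 7.4 Tris-HCl buffer with EDTA, 2 mM MnCl2 and 1% DMSO, using 8-20 μg HEK-hCRTH2 membrane protein. 10 μM PGD2 set non-specific binding; filter-bound counts were read by scintillation.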
row,SMILES,Ki
1,"N#CC1(c2ccccc2)CCN(C(=O)c2ccc3nc(-c4ccccc4)c(CCCCC(=O)O)nc3c2)CC1 [compound 124, 7-[(4-cyano-4-phenyl-1-piperidinyl)carbonyl]-3-phenyl-2-quinolaxinepentanoic acid]",2.1 to 20 nM
2,"C[C@@H](NC(=O)c1ccc2nc(-c3ccccc3)c(CCCC(F)(F)C(=O)O)nc2c1)c1ccc(F)cc1 [compound 37, (R)-2,2-difluoro-5-(7-((1-(4-fluorophenyl)ethyl)carbamoyl)-3-phenylquinoxalin-2-yl)pentanoic acid]",20.1 to 200 nM
3,"CC(CCCc1nc2cc(C(=O)N3CCN(c4ccccc4)CC3)ccc2nc1-c1ccc(Cl)cc1)C(=O)O (stereo not drawn) [compound 169, 3-(4-chlorophenyl)-alpha-methyl-7-[(4-phenyl-1-piperazinyl)carbonyl]-2-quinoxalinepentanoic acid]",2.1 to 20 nM
4,"O=C(O)CCCCc1nc2cc(C(=O)N3CC=C(c4ccccc4)CC3)ccc2nc1-c1ccc(F)cc1 [compound 127, 5-(3-(4-fluorophenyl)-7-(4-phenyl-1,2,3,6-tetrahydropyridine-1-carbonyl)quinoxalin-2-yl)pentanoic acid]",2.1 to 20 nM
5,"O=C(O)CCCCc1nc2cc(C(=O)N3CCC(n4ccnc4)CC3)ccc2nc1-c1ccccc1 [compound 145, 5-(7-(4-(1H-imidazol-1-yl)piperidine-l-carbonyl)-3-phenylquinoxalin-2-yl)pentanoic acid]",2.1 to 20 nM
6,"CC(CCCc1nc2cc(C(=O)N[C@H](C)c3ccc(F)cc3)ccc2nc1-c1ccc(F)cc1)C(=O)O (stereo partly drawn) [compound 209, 3-(4-fluorophenyl)-7-[[[1(R)-(4-fluorophenyl)ethyl]amino]carbonyl]-alpha-methyl-2-quinoxalinepentanoic acid]",2.1 to 20 nM
7,"O=C(O)CCCCc1nc2cc(C(=O)N3CCC(c4ccccc4)C3)ccc2nc1-c1ccc(C(F)(F)F)cc1 (stereo in doubt) [compound 153, 7-[(3(S)-phenyl-1-pyrrolidinyl]carbonyl]-3-[4-(trifluoromethyl)phenyl]-2-quinoxalinepentanoic acid]",0.1 to 2 nM
8,"CC(CCCc1nc2cc(C(=O)N3CCN(c4ccccc4)CC3)ccc2nc1-c1ccc(F)cc1)C(=O)O (stereo not drawn) [compound 206, 3-(4-fluorophenyl)-alpha-methyl-7-[(4-phenyl-1-piperazinyl)carbonyl]-2-quinoxalinepentanoic acid]",2.1 to 20 nM

# The next lines start with the values.
row,Ki,SMILES
1,0.1 to 2 nM,"O=C(O)CCCCc1nc2cc(C(=O)NC3CCc4ccccc43)ccc2nc1-c1ccccc1 (stereo not shown) [15AT, 5-[7-(2,3-dihydro-1H-inden-1-ylcarbamoyl)-3-phenylquinoxalin-2-yl]pentanoic acid]"
2,20.1 to 200 nM,"O=C(O)CCCCc1nc2cc(C(=O)Nc3cccc(F)c3)ccc2nc1-c1ccc(F)cc1 [5N, 3-(4-fluorophenyl)-7-[[(3-fluorophenyl)amino]carbonyl]-2-quinoxalinepentanoic acid]"
3,0.1 to 2 nM,"O=C(O)CCCCc1nc2cc(C(=O)N3CCCC(c4ccccc4)C3)ccc2nc1-c1ccccc1 (stereo not shown) [15Y, 5-{3-phenyl-7-[(3-phenylpiperidin-1-yl)carbonyl]quinoxalin-2-yl}pentanoic acid]"
4,2.1 to 20 nM,"CCNC(=O)c1ccc2nc(-c3ccccc3)c(CCCCC(=O)O)nc2c1 [15AS, 5-[7-(ethylcarbamoyl)-3-phenylquinoxalin-2-yl]pentanoic acid]"
5,2.1 to 20 nM,"C[C@@H](NC(=O)c1ccc2nc(-c3ccc(Cl)cc3)c(CCc3cccc(CC(=O)O)c3)nc2c1)c1ccc(F)cc1 [19G, 3-[2-[3-(4-chlorophenyl)-7-[[[1(R)-(4-fluorophenyl)ethyl]amino]carbonyl]-2-quinaxalinyl]ethyl] benzeneacetic acid]"
6,2.1 to 20 nM,"C[C@@H](NC(=O)c1ccc2nc(-c3ccccc3)c(CCCCC(=O)O)nc2c1)c1ccc(Cl)cc1 [15AX, 5-(7-{[(1R)-1-(4-chlorophenyl)ethyl]carbamoyl}-3-phenyl-quinoxalin-2-yl)pentanoic acid]"
7,2.1 to 20 nM,"Cc1cn(C2CCN(C(=O)c3ccc4nc(-c5ccccc5)c(CCCCC(=O)O)nc4c3)CC2)nn1 [15BQ, 5-(7-{[4-(4-methyl-1H-1,2-3-triazol-1-yl)piperidin-1-yl]carbonyl}-3-phenylquinoxalin-2-yl) pentanoic acid]"
8,0.1 to 2 nM,"C[C@@H](NC(=O)c1ccc2nc(-c3ccccc3)c(CCCCC(=O)O)nc2c1)c1ccc(F)cc1 [15D, 5-(7-{[(1R)-1-(4-fluorophenyl)ethyl]carbamoyl}-3-phenyl-quinoxalin-2-yl)pentanoic acid]"
9,2.1 to 20 nM,"O=C(O)CCCCc1nc2cc(C(=O)N3CCCCC3)ccc2nc1-c1ccccc1 [15BF, 5-[3-phenyl-7-(piperidin-1-ylcarbonyl)quinoxalin-2-yl] pentanoic acid]"
10,2.1 to 20 nM,"C[C@@H](NC(=O)c1ccc2nc(-c3ccccc3)c(NCCCC(=O)O)nc2c1)c1ccc(F)cc1 [44D, (R)-4-((7-((1-(4-fluorophenyl)ethyl)carbamoyl)-3-phenylquinoxalin-2-yl)amino)butanoic acid]"

# Same assay, conditions: [3H]PGD2 binding, values in text
row,Ki,SMILES
1,3 nM,"C[C@@H](NC(=O)c1ccc2nc(-c3ccccc3)c(CCCCC(=O)O)nc2c1)c1ccc(Cl)cc1 [15AX, 5-(7-{[(1R)-1-(4-chlorophenyl)ethyl]carbamoyl}-3-phenyl-quinoxalin-2-yl)pentanoic acid]"

# Same assay, conditions: [3H]PGD2 competition, Table B
row,Ki,SMILES
1,2.1 to 20 nM,"COc1ccc(C2CN(C(=O)c3ccc4nc(-c5ccc(F)cc5)c(CCCCC(=O)O)nc4c3)C2)cc1 [compound 372, 5-(3-(4-fluorophenyl)-7-(3-(4-methoxyphenyl)azetidine-1-carbonyl)quinoxalin-2-yl)pentanoic acid]"
2,2.1 to 20 nM,"O=C(O)CCCCc1nc2cc(C(=O)N[C@H](CO)c3ccc(F)cc3)ccc2nc1-c1ccc(Cl)cc1 [compound 687, (S)-5-(3-(4-chlorophenyl)-7-((1-(4-fluorophenyl)-2-hydroxyethyl)carbamoyl)quinoxalin-2-yl) pentanoic acid]"
3,0.1 to 2 nM,C[C@@H](CCc1nc2cc(C(=O)N[C@H](C)c3ccc(F)cc3)ccc2nc1-c1ccc(Cl)cc1)CC(=O)O [compound 442]
4,0.1 to 2 nM,"O=C(O)CCCCc1nc2cc(C(=O)N[C@H]3CCCc4ccncc43)ccc2nc1-c1ccc(Cl)cc1 [compound 618, (S)-5-(3-(4-chlorophenyl)-7-((5,6,7,8-tetrahydroisoquinolin-8-yl)carbamoyl)quinoxalin-2-yl)pentanoic acid]"
5,201 to 700 nM,"O=C(O)CCCc1nc2cc(C(=O)N[C@@H]3CCCc4ccccc43)ccc2nc1-c1ccccc1 [compound 724, (R)-4-(3-phenyl-7-((1,2,3,4-tetrahydronaphthalen-l-yl)carbamoyl)quinoxalin-2-yl)butanoic acid]"
6,20.1 to 200 nM,"O=C(O)CCCCc1nc2cc(C(=O)N3CCCC3c3ccccn3)ccc2nc1-c1ccc(Cl)cc1 (stereo not shown) [compound 662, 5-(3-(4-chlorophenyl)-7-(2-(pyridin-2-yl)pyrrolidine-1-carbonyl)quinoxalin-2-yl)pentanoic acid]"
7,20.1 to 200 nM,"Cc1noc(C2CCCCN2C(=O)c2ccc3nc(-c4ccc(Cl)cc4)c(CCCCC(=O)O)nc3c2)n1 (stereo not shown) [compound 660, 5-(3-(4-chlorophenyl)-7-(2-(3-methyl-1,2,4-oxadiazol-5-yl)piperidine-1-carbonyl)quinoxalin-2-yl)pentanoic acid]"
8,2.1 to 20 nM,"C[C@@H](NC(=O)c1ccc2nc(-c3ccc(C(F)(F)F)cc3Cl)c(CCCCC(=O)O)nc2c1)c1ccc(F)cc1 [compound 417, (R)-5-(3-(2-chloro-4-(trifluoromethyl)phenyl)-7-((1-(4-fluorophenyl)ethyl)carbamoyl)quinoxalin-2-yl) pentanoic acid]"
9,2.1 to 20 nM,"O=C(O)CCCCc1nc2cc(C(=O)N[C@@H]3CCOc4cc(C(F)(F)F)ccc43)ccc2nc1-c1ccc(Cl)cc1 [compound 720, (R)-5-(3-(4-chlorophenyl)-7-((7-(trifluoromethyl)chroman-4-yl)carbamoyl)quinoxalin-2-yl)pentanoic acid]"
10,2.1 to 20 nM,"O=C(O)CCCCc1nc2cc(C(=O)NCC3(c4ccc(OC(F)(F)F)cc4)CC3)ccc2nc1-c1ccc(Cl)cc1 [compound 317, 5-(3-(4-chlorophenyl)-7-(((1-(4-(trifluoromethoxy)phenyl)cyclopropyl)methyl)carbamoyl)quinoxalin-2-yl)pentanoic acid]"
11,201 to 700 nM,"O=C(N[C@H]1CCOc2ccccc21)c1ccc2nc(-c3ccc(F)cc3)c(CCCC(F)(F)C(=O)O)nc2c1 [compound 548, (S)-5-(7-(chroman-4-ylcarbamoyl)-3-(4-fluorophenyl)quinoxalin-2-yl)-2,2-difluoro-pentanoic acid]"
12,201 to 700 nM,"C[C@@H](NC(=O)c1ccc2nc(-c3ccccc3)c(CCCCC(=O)O)nc2c1)c1cncc2ccccc12 [compound 638, (R)-5-(7-((1-(isoquinolin-4-yl)ethyl)carbamoyl)-3-phenylquinoxalin-2-yl)pentanoic acid]"
13,2.1 to 20 nM,"CC(CCCc1nc2cc(C(=O)N[C@H](C)c3ccc(F)cc3)ccc2nc1-c1ccccc1)C(=O)O (stereo partly drawn) [compound 461, 5-(7-(((R)-1-(4-fluorophenyl)ethyl)carbamoyl)-3-phenylquinoxalin-2-yl)-2-methylpentanoic acid]"
14,2.1 to 20 nM,"CC(CCCc1nc2cc(C(=O)N[C@@H]3CCc4cc(Cl)ccc43)ccc2nc1-c1ccc(F)cc1)C(=O)O (stereo partly drawn) [compound 456, 5-(7-(((R)-5-chloro-2,3-dihydro-1H-inden-1-yl)carbamoyl)-3-(4-fluorophenyl)quinoxalin-2-yl)-2-methylpentanoic acid]"

row,SMILES,Ki
1,O=C(O)CCCCc1nc2cc(C(=O)N3[C@@H]4CC[C@H]3CN(Cc3ccccc3)C4)ccc2nc1-c1ccc(Cl)cc1 [compound 702],2.1 to 20 nM

# Source: US9469615B2, “Quinoxalines and AZA-quinoxalines as CRTH2 receptor modulators” (Merck Sharp & Dohme Corp., priority 2010, dated 2016)
